Test results reported in patent publication US5889048A, “Methods and compositions for treating defective cell functions” (priority 1994, dated 1999).

Test system: L-41 cell line
Assay: cytostatic activity on reinoculated tumor culture of L-41 cell line (protein content, % cell growth inhibition)
Format: cell-based
Procedure: The […] activity of a pharmaceutical formulation of the invention was tested with using reinoculated tumor cell cultures.
In the studies a reinoculated leukocyte culture of L-41 strain was used.
The cell culture was incubated by the conventional method. The inoculate density was 1-10^5 cells in 1 ml of nutrient medium. […] On day 2 from the start of the study, a biological activity of the proposed formulation was estimated using 4-point scale. The assays for protein in cultures were performed by the Louri method modified by the Oyama and Eagle.
The cytostatic activity of the proposed formulation was evaluated as the % inhibition of cell culture growth by the suppression of protein production.
According to the existing standard techniques for screening the antitumor preparations, a pharmaceutical formulation is recognized to be efficient when its ED50 is less or equal to 100 μg/ml.
Comparison of biologic activity of the proposed pharmaceutical
reinoculated tumor culture of L-41 cell line

[1] = mercury dichloride alone 1.0 μg/ml
[2] = mercury dichloride alone 3.3 μg/ml
[3] = mercury dichloride alone 5.0 μg/ml
[4] = mercury dichloride alone 8.0 μg/ml

## [Cl][Hg][Cl] [Mercury dichloride, mercury dichloride]
L-41 culture, Table 1 data
  ED50: about 8 μg/ml
[1]
  % of cell growth inhibition: 1.2%
  Protein content: 390.3 ± 2.6 µg/mL
[2]
  % of cell growth inhibition: 5.1%
  Protein content: 279.0 ± 27.3 µg/mL
[3]
  % of cell growth inhibition: 12.9%
  Protein content: 256.0 ± 5.2 µg/mL
[4]
  % of cell growth inhibition: 47.6%
  Protein content: 154.0 ± 5.0 µg/mL
Preliminary experiment
  ED50 (preliminary experiment): < 10 µg/mL
